# Experimental data from patent US20070111265A1, “Ligands for mineralocorticoid receptor (MR) and methods for screening for or designing MR ligands” (Van Andel Research Institute, priority 2005, published 2007).
# pEC50: −log10 of the molar value. Where two headings read alike, the source gives them in different places.
# Target: T1, wild type GR (full-length) (Homo sapiens, UniProt P04150)
# T1 sequence (P04150 1-777): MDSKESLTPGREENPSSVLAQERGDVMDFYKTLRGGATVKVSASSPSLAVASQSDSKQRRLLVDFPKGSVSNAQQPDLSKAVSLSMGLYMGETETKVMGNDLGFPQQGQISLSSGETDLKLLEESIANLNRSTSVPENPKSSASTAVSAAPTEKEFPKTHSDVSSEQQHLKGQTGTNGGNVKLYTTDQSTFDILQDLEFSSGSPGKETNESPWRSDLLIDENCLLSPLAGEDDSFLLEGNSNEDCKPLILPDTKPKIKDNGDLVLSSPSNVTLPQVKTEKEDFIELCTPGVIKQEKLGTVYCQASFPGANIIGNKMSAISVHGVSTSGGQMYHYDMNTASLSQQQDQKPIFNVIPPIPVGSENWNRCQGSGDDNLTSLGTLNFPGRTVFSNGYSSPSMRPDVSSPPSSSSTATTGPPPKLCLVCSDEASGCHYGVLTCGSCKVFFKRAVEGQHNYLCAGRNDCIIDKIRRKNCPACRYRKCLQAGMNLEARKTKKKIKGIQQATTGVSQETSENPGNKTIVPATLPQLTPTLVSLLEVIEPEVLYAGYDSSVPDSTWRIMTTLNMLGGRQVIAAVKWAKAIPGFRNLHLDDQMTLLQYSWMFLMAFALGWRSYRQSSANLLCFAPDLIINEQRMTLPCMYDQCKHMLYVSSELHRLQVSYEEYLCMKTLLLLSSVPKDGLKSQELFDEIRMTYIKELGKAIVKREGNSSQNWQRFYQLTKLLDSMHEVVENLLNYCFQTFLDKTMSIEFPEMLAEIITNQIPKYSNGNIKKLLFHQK
# Experiment: MMTV luciferase reporter assay in Cos-7 cells
# Format: cell-based
# Method: Cos-7 cells were maintained in DMEM containing 10% fetal bovine serum (FBS) and were transiently transfected using Lipofectamine 2000 (Invitrogen). […] Cells were transfected in Opti-MEM with 400 ng of MMTV-Luc reporter plasmid and 400 ng of receptor expression vector (pRS vector) encoding full-length GR and MR respectively (ATCC). […] Luciferase data were normalized to Renilla activity as an internal control.
# To validate the role of the key MR pocket residues in hormone recognition, the inventors mutated S843 and L848 to the corresponding GR residues (S843P and L848Q) within the context of the full length wild type receptor. […] We also performed reverse mutations in the full length GR receptor (P637S and Q642L) and tested them in the same MMTV reporter.
structure (smiles),measurement,setting,value
C[C@]12C[C@H](O)[C@H]3[C@@H](CCC4=CC(=O)CC[C@@]43C)[C@@H]1CC[C@@H]2C(=O)CO [corticosterone],pEC50,"Cos-7, MMTV-Luc, read-out: EC50, activation of wild type GR",~7.70
same,pEC50,"summary of FIG. 5 dose-response, read-out: affinity to GR (shown in FIG. 5)",~8.00
